Consider ten compounds from patent US11807649B2, “Fused tetracyclic quinazoline derivatives as inhibitors of ErbB2” (EnLiven Therapeutics, Inc., priority 2021, dated 2023).

The structures appear in SMILES notation. pIC50: −log10 of the molar value. Read-outs that look alike come from different tables or passages of the source.

Holding throughout (type): cell-based
The subject of one assay is Ba/F3 ERBB2 YVMA. Kind of assay: Cell viability assay (CellTiter Glo), Ba/F3 cells engineered to express ERBB2 YVMA. As to conditions: Mus musculus, BaF3, 72 h; for pIC50: Ba/F3 cells expressing human ERBB2 YVMA mutant, 72 hours, cell viability, CellTiter Glo, read-out: Ba/F3 ERBB2 YVMA, IC50; for IC50: read-out: Ba/F3 ERBB2 YVMA, IC50, nM. As to the method: Cells were treated with compounds, and cell viability was measured as a metric of kinase inhibition.
BT-474, A431, MDA-MB-175VII, NCI-H1781, MCF7, and Ba/F3 cell lines were tested. The Ba/F3 cell line is IL-3-dependent mouse cell line derived from the C3H mouse strain. Ba/F3 cell lines were engineered to express human ERBB2 or EGFR kinases, rendering the cells IL-3 independent. The lines were generated via retroviral transduction utilizing a Moloney murine leukemia virus (MMLV) promoter, and constructs are stably integrated into the cell genome. The sequences of the ERBB2 and EGFR genes used were NCBI Reference Sequences NM 004448.3 and NM 005228.3, respectively.
BT-474, A431, MDA-MB-175VII, NCI-H1781 and MCF7 cells were grown in the appropriate growth medium as described in Table B2 below, and harvested at 50-80% confluence. BT-474, A431, MDA-MB-175VII, NCI-H1781 and MCF7 cells were counted and seeded at 2,000 or 1,500 cells per well in 384-well tissue culture plates (see Table B2). Similarly, Ba/F3 cell lines engineered to express EGFR, ERBB2, or ERBB2 mutants were grown, harvested, counted and seeded at 3000 cells per well in 96-well plates. A subset of wells contained media only (low control, “LC”).
Table B1 provides the growth media and number of cells seeded per well for the each cell line.
Compounds were dissolved in DMSO and serially diluted. Serially-diluted compound or a DMSO only control (high control, “HC”) was added to the plated cells in each well. Compounds were tested at concentrations of about 10 μM to 0.51 nM, using three-fold dilutions. The final proportion of DMSO never exceeded 0.1%.
Plates were placed in a 37° C., 5% CO2 incubator for 72 hours. Plates were then removed from the incubator and equilibrated for 15 minutes at room temperature. […] of CellTiter Glo reagent (Promega) was added to measure the relative level of metabolically active cells by quantifying intracellular ATP concentrations. Plates were incubated for 30 minutes at room temperature, and luminescence was measured. Percent viability was normalized to a vehicle control only using the following formula: % viability=100×(Lumsample−LumLC)/(LumHC−LumLC). Graphical curves were fitted using a nonlinear regression model with a sigmoidal dose response.

In assay [1] the target is phosphorylated ERBB2 (pERBB2) (Homo sapiens (Human), UniProt P04626). Kind of assay: Detection of phosphorylated ERBB2 (pERBB2) by ELISA in BT-474 cells. Conditions: four hours incubation with compound. The procedure:
BT-474 cells were seeded into a 96-well at 2.0*10^4 cells/100 μl/well. Compounds were dissolved and serially diluted in DMSO. The compounds were then were added, mixed, and incubated for four hours at 37° C., 5% CO2. […] Following the four hour incubation with compounds, cell lysates were prepared. Plates were centrifuged for 5 min at 3000 RPM, and supernatant was removed from each well. Cells were washed 3 times by resuspension in 150 μl PBS, followed by centrifugation and removal of the supernatant, as above. 100 μl of cell lysis buffer (Boston BioProducts, cat #BP-115D) supplied with 1× complete ULTRA cocktail inhibitor (Thermo ScientificTM, cat #78443) was then added to the washed cells. Cells were incubated with lysis buffer for 1 hour at 4° C., and then stored at -80° C. Enzyme-linked immunosorbent assays (ELISA) were performed to measure phosphorylated ERBB2 levels. […] The next day, plates were washed with PBS+0.05% Tween20 (PBST). 150 μl of 5% BSA blocking solution was added for 1 hour at room temperature, with shaking. Plates were washed with PB ST. Cell lysates were thawed and 100 μl of lysate was added to the ELISA plate. The plates were incubated for 2 hours at room temperature, with shaking. ELISA plates were then washed with PBST and 100 μl of an HRP-labeled detection antibody that binds phosphorylated tyrosine (R&D Systems, cat #841913) was added to each well. Plates were incubated for 1 hour at room temperature, with shaking. Plates were then washed with PBST, and 100 μl TMB substrate solution (R&D Systems, cat #DY999) was added. Plate were incubated in the dark for 20 minutes at room temperature. 50 μl of Stop solution (R&D Systems, cat #DY994) (50 μl) was added to each well and mixed. […] The remaining kinase activity by calculated using the following formula: % Relative activity=100×([…]). The low and high control values (“LC” and “HC”) were generated from lysate from wells without cells or with cells treated with 0.1% DMSO, respectively.
On the technique in general: ELISA stands for enzyme-linked immunosorbent assay.

Assay [2] deals with phosphorylated EGFR (pEGFR) (Homo sapiens (Human), UniProt P00533). Put plainly: Detection of phosphorylated EGFR (pEGFR) in EGF-stimulated A431 cells (AlphaLISA). Conditions: A431 cells (10% FBS), 4 hours incubation, then EGF 30 ng/mL for 10 minutes. The procedure:
[…] were performed to measure phosphorylated EGFR levels using A431 cells (10% FBS). A431 (1.0*10^4 cells/40 μl/well) cells were seeded in 384 well. Compounds were dissolved in DMSO, serially diluted in DMSO and then were added, mixed, and incubated for 4 hours at 37° C., 5% CO2. Following the 4-hours incubation, cells were stimulated for 10 minutes with EGF (Invitrogen, cat #PHG0311) at a final concentration of 30 ng/mL in the incubator. The media was aspirated and cells were lysed in […] lysis buffer with protease and phosphatase inhibitors (PerkinElmer, cat #ALSU-PEGFR-A50K). The plates were placed on a shaker for 5 minutes and then incubated for 30 min at 4° C. for complete lysis. The lysate was transferred to an Optiplate (Perkin Elmer, cat #6007290).
Acceptor mix (PerkinElmer, cat #ALSU-PEGFR-A50K) was prepared just before use and 5 μL was dispensed to all the wells, followed by a 1.5-2 h incubation at room temperature in dark. The donor mix (PerkinElmer, cat #ALSU-PEGFR-A50K) was prepared under low light conditions prior to use and […] of donor mix was added to all the wells under subdued lighting or green filters. The plates were placed on a shaker for 5 min, sealed, and incubated overnight at room temperature in dark. Plates were read on the Envision (PerkinElmer) using standard AlphaLISA settings.
The percentage of inhibition on EGFR phosphorylation was calculated following equation: % Inhibition=100×(LumHC−LumSample)/(LumHC−LumLC). The low and high controls (LC/HC) are generated from lysate from wells with cells treated with DMSO or […] Staurosporine (BioAustralis, cat #BIA-S1086), […]. IC50 values were calculated by fitting the Curve using XLfit (v5.3.1.3), equation 201: Y=Bottom+(Top−Bottom)/(1+10^((Log IC50−X)*HillSlope)).
(In Alpha technology, singlet oxygen from a donor bead excites a nearby acceptor bead.)

Sequence of phosphorylated ERBB2 (pERBB2) (P04626 23-1255): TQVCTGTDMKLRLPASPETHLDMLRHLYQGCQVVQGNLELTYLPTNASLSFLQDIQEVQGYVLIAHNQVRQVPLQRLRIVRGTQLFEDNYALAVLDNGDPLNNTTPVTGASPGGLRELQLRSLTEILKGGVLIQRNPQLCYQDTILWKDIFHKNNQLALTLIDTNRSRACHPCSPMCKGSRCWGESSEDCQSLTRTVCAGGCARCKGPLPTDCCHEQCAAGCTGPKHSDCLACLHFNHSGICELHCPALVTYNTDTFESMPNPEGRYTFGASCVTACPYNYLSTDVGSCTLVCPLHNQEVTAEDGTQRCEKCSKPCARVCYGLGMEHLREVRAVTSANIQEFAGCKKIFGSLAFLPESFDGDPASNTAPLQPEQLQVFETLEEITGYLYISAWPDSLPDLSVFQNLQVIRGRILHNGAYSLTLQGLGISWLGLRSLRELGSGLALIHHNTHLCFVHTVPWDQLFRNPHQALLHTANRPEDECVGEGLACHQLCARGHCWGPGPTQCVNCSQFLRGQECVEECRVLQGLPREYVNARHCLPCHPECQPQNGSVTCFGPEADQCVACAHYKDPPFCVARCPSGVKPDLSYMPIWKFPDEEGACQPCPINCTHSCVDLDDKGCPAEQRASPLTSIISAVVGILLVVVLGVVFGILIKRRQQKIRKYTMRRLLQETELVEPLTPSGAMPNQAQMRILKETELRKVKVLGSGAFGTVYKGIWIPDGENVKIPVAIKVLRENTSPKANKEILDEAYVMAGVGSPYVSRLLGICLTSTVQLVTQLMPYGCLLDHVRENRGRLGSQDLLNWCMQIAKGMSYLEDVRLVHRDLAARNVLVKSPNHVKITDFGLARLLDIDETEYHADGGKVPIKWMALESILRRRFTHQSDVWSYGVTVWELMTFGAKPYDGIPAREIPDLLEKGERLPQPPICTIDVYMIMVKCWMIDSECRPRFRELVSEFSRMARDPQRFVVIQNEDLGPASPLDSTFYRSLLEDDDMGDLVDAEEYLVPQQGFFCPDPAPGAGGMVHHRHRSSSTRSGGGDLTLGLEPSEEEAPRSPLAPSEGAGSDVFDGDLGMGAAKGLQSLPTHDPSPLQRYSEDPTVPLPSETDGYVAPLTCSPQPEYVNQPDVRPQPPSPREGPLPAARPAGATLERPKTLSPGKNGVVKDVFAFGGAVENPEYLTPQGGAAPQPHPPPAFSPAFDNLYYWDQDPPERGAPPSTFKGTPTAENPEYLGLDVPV
Sequence of phosphorylated EGFR (pEGFR) (P00533 25-1210): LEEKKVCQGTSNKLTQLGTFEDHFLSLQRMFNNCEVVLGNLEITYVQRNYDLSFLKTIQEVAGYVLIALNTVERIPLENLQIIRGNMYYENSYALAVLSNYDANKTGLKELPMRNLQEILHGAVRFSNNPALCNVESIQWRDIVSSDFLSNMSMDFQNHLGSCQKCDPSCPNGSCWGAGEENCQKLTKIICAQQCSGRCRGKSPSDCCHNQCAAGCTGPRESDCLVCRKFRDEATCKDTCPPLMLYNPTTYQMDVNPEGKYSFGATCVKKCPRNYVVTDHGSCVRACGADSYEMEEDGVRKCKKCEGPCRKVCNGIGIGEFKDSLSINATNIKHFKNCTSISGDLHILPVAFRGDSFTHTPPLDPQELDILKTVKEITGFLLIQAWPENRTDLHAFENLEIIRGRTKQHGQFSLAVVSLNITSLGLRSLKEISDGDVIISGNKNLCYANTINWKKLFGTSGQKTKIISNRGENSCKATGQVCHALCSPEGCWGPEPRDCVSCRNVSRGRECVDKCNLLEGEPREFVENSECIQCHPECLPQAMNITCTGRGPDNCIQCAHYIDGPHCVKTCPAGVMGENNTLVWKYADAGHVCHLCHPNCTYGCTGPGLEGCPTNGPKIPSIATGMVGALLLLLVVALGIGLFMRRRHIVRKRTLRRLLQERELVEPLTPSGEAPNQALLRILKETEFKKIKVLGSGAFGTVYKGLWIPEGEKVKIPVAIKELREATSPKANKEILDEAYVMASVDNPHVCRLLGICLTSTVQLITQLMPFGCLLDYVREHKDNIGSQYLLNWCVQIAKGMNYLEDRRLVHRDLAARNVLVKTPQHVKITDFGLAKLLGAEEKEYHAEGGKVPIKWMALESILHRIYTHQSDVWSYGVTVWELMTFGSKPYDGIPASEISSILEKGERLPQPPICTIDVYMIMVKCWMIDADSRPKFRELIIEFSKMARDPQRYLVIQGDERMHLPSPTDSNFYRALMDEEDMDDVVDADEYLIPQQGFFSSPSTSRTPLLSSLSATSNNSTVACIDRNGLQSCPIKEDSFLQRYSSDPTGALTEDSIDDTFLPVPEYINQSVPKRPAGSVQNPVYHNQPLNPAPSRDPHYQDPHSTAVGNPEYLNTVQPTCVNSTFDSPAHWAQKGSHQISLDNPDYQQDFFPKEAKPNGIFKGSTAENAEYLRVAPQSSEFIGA

For `Cc1cc(Nc2ncnc3cc4c(nc23)N2CCCN(C(=O)/C=C/CN(C)C)C(CO4)C2)ccc1Oc1ccn2ncnc2c1` (racemic) [Compound 54, (E)-1-(4-((4-([1,2,4]triazolo[1,5-a]pyridin-7-yloxy)-3-methylphenyl)amino)-8,9,11,12-tetrahydro-6,11-methanopyrimido[4′,5′:5,6]pyrido[3,2-b][1,4,8]oxadiazecin-10(7H)-yl)-4-(dimethylamino)but-2-en-1-one], the figures for the pIC50 (in the assay on Ba/F3 ERBB2 YVMA; in assay [1]; in assay [2]) were 8.06, 7.53 and less than 5.00, respectively.

On to `Cc1cc(Nc2ncnc3cc4c(nc23)N2CCCN(C(=O)/C=C/CN(C)C)C(CO4)C2)ccc1Oc1ccn2ncnc2c1` (single isomer, unassigned) [Example S55, Enantiomer 1, (E)-1-(4-((4-([1,2,4]triazolo[1,5-a]pyridin-7-yloxy)-3-methylphenyl)amino)-8,9,11,12-tetrahydro-6,11-methanopyrimido[4′,5′:5,6]pyrido[3,2-b][1,4,8]oxadiazecin-10(7H)-yl)-4-(dimethylamino)but-2-en-1-one], for which the pIC50 in assay [1] was 7.76.

Consider `Cc1cc(Nc2ncnc3cc4c(nc23)N2CCCN(C(=O)/C=C/CN(C)C)C(CO4)C2)ccc1Oc1ccn2ncnc2c1` (single isomer, unassigned) [Example S55, Enantiomer 2, (E)-1-(4-((4-([1,2,4]triazolo[1,5-a]pyridin-7-yloxy)-3-methylphenyl)amino)-8,9,11,12-tetrahydro-6,11-methanopyrimido[4′,5′:5,6]pyrido[3,2-b][1,4,8]oxadiazecin-10(7H)-yl)-4-(dimethylamino)but-2-en-1-one], for which the pIC50 in assay [1] was 6.52.

On to `C=CC(=O)N1CCN2C[C@H]1COc1cc3ncnc(Nc4ccc(Cc5ccn6ncnc6c5)c(C)c4)c3nc12` [Compound 13, 1-((10S)-4-((4-([1,2,4]triazolo[1,5-a]pyridin-7-ylmethyl)-3-methylphenyl)amino)-7,8,10,11-tetrahydro-9H-6,10-methanopyrimido[4′,5′:5,6]pyrido[3,2-b][1,4,7]oxadiazonin-9-yl)prop-2-en-1-one], for which, in the assay with Ba/F3 ERBB2 YVMA, the IC50 stood at 8.92 nM. Further, the pIC50 in assay [1] was 7.80; in assay [2], 5.80.

As for `C=CC(=O)N1CCN2C[C@@H]1COc1cc3ncnc(Nc4ccc(Cc5ccn6ncnc6c5)c(C)c4)c3nc12` [Compound 19], the IC50 in the assay on Ba/F3 ERBB2 YVMA is more than 500 nM. In assay [2], this compound had a pIC50 of less than 5.00.

Consider `[2H]C([2H])([2H])N(C/C=C/C(=O)N1CCN2C[C@H]1COc1cc3ncnc(Nc4ccc(Oc5ccn6ncnc6c5)c(C)c4)c3nc12)C([2H])([2H])[2H]` [Compound 36, (E)-1-((10S)-4-((4-([1,2,4]triazolo[1,5-a]pyridin-7-yloxy)-3-methylphenyl)amino)-7,8,10,11-tetrahydro-9H-6,10-methanopyrimido[4′,5′:5,6]pyrido[3,2-b][1,4,7]oxadiazonin-9-yl)-4-(bis(methyl-d3)amino)but-2-en-1-one formic acid], for which, in the assay with Ba/F3 ERBB2 YVMA, the IC50 worked out at 6.19 nM. For the same compound, the figures for the pIC50 in assay [1] and in assay [2] were 8.00 and 5.79, respectively.

`[2H]C([2H])([2H])N(C/C=C/C(=O)N1CCN2C[C@H]1COc1cc3ncnc(Nc4cc(C)c(Oc5ccn6ncnc6c5)cc4F)c3nc12)C([2H])([2H])[2H]` [Compound 46, (E)-1-((10S)-4-((4-([1,2,4]triazolo[1,5-a]pyridin-7-yloxy)-2-fluoro-5-methylphenyl)amino)-7,8,10,11-tetrahydro-9H-6,10-methanopyrimido[4′,5′:5,6]pyrido[3,2-b][1,4,7]oxadiazonin-9-yl)-4-(bis(methyl-d3)amino)but-2-en-1-one]: the IC50 in the assay with Ba/F3 ERBB2 YVMA worked out at 7.04 nM. Besides, the pIC50 in assay [1] is 8.16; in assay [2], 5.61.

For the compound `[2H]C([2H])(/C=C/C(=O)N1CCN2C[C@H]1COc1cc3ncnc(Nc4cc(C)c(Oc5ccn6ncnc6c5)cc4F)c3nc12)N(C)C` [Compound 58, (E)-1-((10S)-4-((4-([1,2,4]triazolo[1,5-a]pyridin-7-yloxy)-2-fluoro-5-methylphenyl)amino)-7,8,10,11-tetrahydro-9H-6,10-methanopyrimido[4′,5′:5,6]pyrido[3,2-b][1,4,7]oxadiazonin-9-yl)-4-(dimethylamino)but-2-en-1-one-4,4-d2], the pIC50 in the assay with Ba/F3 ERBB2 YVMA is 8.11; in assay [1], 8.26; in assay [2], 6.06.

As for `[2H]C([2H])([2H])N(C([2H])([2H])[2H])C([2H])([2H])/C=C/C(=O)N1CCN2C[C@H]1COc1cc3ncnc(Nc4cc(C)c(Oc5ccn6ncnc6c5)cc4F)c3nc12` [Compound 59, (E)-1-((10S)-4-((4-([1,2,4]triazolo[1,5-a]pyridin-7-yloxy)-2-fluoro-5-methylphenyl)amino)-7,8,10,11-tetrahydro-9H-6,10-methanopyrimido[4′,5′:5,6]pyrido[3,2-b][1,4,7]oxadiazonin-9-yl)-4-(bis(methyl-d3)amino)but-2-en-1-one-4,4-d2], the figures for the pIC50 (with Ba/F3 ERBB2 YVMA; in assay [1]; in assay [2]) were 8.19, 8.05 and 5.86, respectively.

On to `Cc1cc(Nc2ncnc3ccc(NC4=NC(C)(C)CO4)cc23)ccc1Oc1ccn2ncnc2c1` [Tucatinib, tucatinib, reference compound], for which the pIC50 with Ba/F3 ERBB2 YVMA is 6.98.
